Here are results for 1 compound from US7906498B2, “Cholesterol as an antibiotic for Streptococcus pneumoniae” (priority 2005, dated 2011).

Data set [1] deals with S. pneumoniae strains Avery's, R6, and TIGR4. Nature of the data set: In vitro incubation of log-phase S. pneumoniae with cholesterol (optical density, plating). It is filed as cell-based, Streptococcus pneumoniae. The note with it: 3 hours. How it is done: To determine if cholesterol is bactericidal, log-phase S. pneumoniae were incubated with cholesterol. Three S. pneumoniae strains, Avery's, R6, and TIGR4, were diluted from overnight cultures and grown to log phase (A600=0.3). These bacteria were then incubated with 1% cholesterol in 20% glycerol, 20% glycerol alone, or PBS. The optical density of each strain was determined once per hour for 3 hours, and bacterial loads were determined by plating dilutions of the bacteria onto chocolate agar. […] While cholesterol prevented growth in vitro (outside the cornea), cholesterol had no effect on bacterial growth in the cornea. (See above). Topical application of cholesterol could be used to decrease the numbers of S. pneumoniae on the outside surface of the cornea, and inhibit bacterial infiltration of the corneal surface.

The test system of data set [2] is encapsulated S. pneumoniae. Nature of the data set: Rabbit S. pneumoniae keratitis, slit lamp examination (SLE) score. The following applies: topical 1% cholesterol in 20% glycerol, 20 and 24 hours post-infection.
The next data set has as its system Staphylococcus aureus. Nature of the data set: Rabbit Staphylococcus aureus keratitis treated with cholesterol. It is filed as in vivo. The note with it: cholesterol 1% in 20% glycerol.
In a further data set the target is alpha-toxin (Staphylococcus aureus, UniProt P09616). The note with it: in vivo.
alpha-toxin, sequence (P09616 27-319 limits assumed): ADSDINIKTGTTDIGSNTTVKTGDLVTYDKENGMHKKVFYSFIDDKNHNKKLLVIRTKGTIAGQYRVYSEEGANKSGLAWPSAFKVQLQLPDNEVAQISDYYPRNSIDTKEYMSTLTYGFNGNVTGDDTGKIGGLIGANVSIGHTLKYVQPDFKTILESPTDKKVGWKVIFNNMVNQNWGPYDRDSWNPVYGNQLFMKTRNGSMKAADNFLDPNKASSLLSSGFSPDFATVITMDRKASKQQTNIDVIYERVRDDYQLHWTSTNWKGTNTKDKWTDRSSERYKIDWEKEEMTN
Data set [3] relates to encapsulated S. pneumoniae. As to the kind of experiment: Bacterial load in infected rabbit corneas. It is filed as in vivo, Streptococcus pneumoniae. The following applies: topical application. As to the method: Sacrifice of the rabbits occurred immediately following the last SLE time (48 hours post-infection) to avoid unnecessary pain. Corneas were harvested for bacterial quantification or for histopathologic analysis. […] Bacterial loads were determined for control corneas (treated with 20% glycerol only) and corneas treated with the topical cholesterol (1% in 20% glycerol). The bacterial load in the control corneas ranged from 2.48 to 6.60 log colony-forming units, while in the treated corneas the load was 3.68 to 6.59 log colony-forming units.

Data set [4] can be described thus: Test whether cholesterol independently causes inflammation in rabbit corneas (topical drops or intrastromal injection). The note with it: one cornea, examined up to 48 hours post-injection. It is filed as in vivo. As to the method:
The applications were 30 minutes apart for the first hour, and the remaining applications were 1 hour apart. The corneas were examined periodically for several days. […] The possible effect of cholesterol injected into the corneal stroma was also examined. […] The corneas were examined every 2 hours for the first 8 hours, and then at 24, 30, and 48 hours post-injection.

Each structure is given as a SMILES string.

Turning to `CC(C)CCC[C@@H](C)[C@H]1CC[C@H]2[C@@H]3CC=C4C[C@@H](O)CC[C@]4(C)[C@H]3CC[C@]12C` [cholesterol], the “effect on bacterial growth in vitro” value is recorded as “prevented the growth” in data set [1] (strain Avery's, 1% cholesterol in 20% glycerol) and “prevented the growth” in data set [1] (strain R6, 1% cholesterol in 20% glycerol). For the same compound, the “corneal severity (SLE), treated versus untreated corneas” value in data set [2] is “essentially the same”. Besides, in the data set with Staphylococcus aureus, the “inhibition of damaging effects in S. aureus-infected corneas” value is “ineffective”. For the same compound, on alpha-toxin, the “reduction of pathology associated with alpha-toxin” value is “ineffective”. Moreover, the “bactericidal effect on bacteria once inside the cornea” value in data set [3] was “does not have a bactericidal effect”. In addition, the “inflammation or adverse effect after injection into corneal stroma” value in data set [4] ([…]) and in data set [4] (injection of 0.5% cholesterol in 10% glycerol) was “No inflammation or adverse effect was observed” each time.
